The target in data set [1] is T1, human 5-HT6 receptor (Homo sapiens, UniProt P50406).
T1 construct: host or cells: CHO-K1 cells, stably transfected; membranes prepared in house
Description: Human 5-HT6 Receptor Binding Assay ([3H]LSD displacement, scintillation beads). Conditions: membranes of CHO-K1 cells with recombinant human 5-HT6, 4 nM [3H]LSD, read-out: h5-HT6 (Ki).

Each structure is given as a SMILES string. Where a name gives a salt, the structure may show the parent alone. Read-outs that look alike come from different tables or passages of the source. Some results are limits rather than exact numbers.

T1 sequence (P50406 whole entry): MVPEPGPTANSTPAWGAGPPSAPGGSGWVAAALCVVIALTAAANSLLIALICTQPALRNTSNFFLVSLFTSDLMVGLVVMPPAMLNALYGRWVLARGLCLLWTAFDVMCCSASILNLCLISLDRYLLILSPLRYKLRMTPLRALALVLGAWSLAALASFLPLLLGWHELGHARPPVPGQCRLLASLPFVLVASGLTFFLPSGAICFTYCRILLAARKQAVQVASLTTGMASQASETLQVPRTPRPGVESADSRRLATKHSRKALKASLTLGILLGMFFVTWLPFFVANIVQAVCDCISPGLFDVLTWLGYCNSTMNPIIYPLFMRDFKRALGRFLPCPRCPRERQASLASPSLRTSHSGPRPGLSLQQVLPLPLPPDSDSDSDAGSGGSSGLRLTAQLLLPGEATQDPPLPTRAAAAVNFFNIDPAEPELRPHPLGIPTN

In the case of `Cn1ccc2c(S(=O)(=O)c3ccc4c(c3)OC3CNCCC43)cccc21` (centres unmarked) [Example 68], the melting point (usually the temperature, or range, at which the solid turns liquid) was 164 to 165 °C. The Ki (in general, a dissociation constant, usually derived from enzyme kinetics or from competition with a known ligand) in data set [1] (Table 1, class symbols) was below 500 nM.

`O=S(=O)(c1ccc2c(c1)OC1CNCCC21)c1cccc2nsnc12` (centres unmarked) [Example 67]: the melting point is 195 to 196 °C. In addition, the Ki in data set [1] (Table 1, class symbols) is below 500 nM.

The molecule `O=S(=O)(c1ccc2c3c(oc2c1)C1(CCOC1)NCC3)c1cccc(F)c1F` (single isomer, unassigned; enantiomer 1) [Example 473, 7-[(2,3-Difluorophenyl)sulfonyl]-3,4,4′,5-tetrahydro-2H-spiro[1-benzofuro[2,3-c]pyridine-1,3′-furan], enantiomer 1] returned a melting point of 269 to 272 °C. The Ki in data set [1] (Table 1, class symbols) was below 500 nM.

Take `C[C@@H]1CCCN1CCCOc1cc(F)cc(S(=O)(=O)c2ccc3c(c2)OC2CNCCC32)c1` (single isomer, unassigned) [Example 626]: the melting point is 208 to 212 °C. For the same molecule, in data set [1] (Table 1, class symbols), the Ki was above 1000 nM.

In turn, `CC12CCNCC1Oc1ccc(S(=O)(=O)c3ccc(F)cc3F)cc12` (centres unmarked) [Example 93] came in with a melting point of 215 to 216 °C. The Ki in data set [1] (Table 1, class symbols) lay within 500 to 1000 nM.

As to `O=S(=O)(c1cccc(F)c1)c1ccc2c3c(oc2c1)C1(COC1)NCC3` [Example 48, 7-[(3-fluorophenyl)sulfonyl]-3,4-dihydro-2H-spiro[1-benzofuro[2,3-c]pyridine-1,3′-oxetane]], the melting point lay within 153 to 155 °C. Moreover, the Ki in data set [1] (Table 1, class symbols) is below 500 nM.

`O=S(=O)(c1ccc2c(c1)OC1CNCCC21)c1nc2ccccc2s1` (centres unmarked) [Example 65] returned a melting point of 195 to 196 °C. The Ki in data set [1] (Table 1, class symbols) is below 500 nM.

As for `Cc1ccc2nsnc2c1S(=O)(=O)c1ccc2c(c1)OC1CNCCC21` (centres unmarked) [Example 70], the melting point fell in the range of 200 to 201 °C. For the same molecule, the Ki in data set [1] (Table 1, class symbols) is above 1000 nM.

Regarding `Cc1c(Cl)cccc1S(=O)(=O)c1ccc2c3c(oc2c1)CNCC3` [Example 82], the melting point fell in the range of 258 to 259 °C. The Ki in data set [1] (Table 1, class symbols) is below 500 nM.

Molecule `O=S(=O)(c1ccc2c3c(oc2c1)CNCC3)c1cccc2nsnc12` [Example 83] registered a melting point of 242 to 243 °C. Besides, in data set [1] (Table 1, class symbols), the Ki was below 500 nM.

On to `CC(=O)NCC1(C)NCCc2c1oc1cc(S(=O)(=O)c3cccc(F)c3)ccc21` (centres unmarked) [Example 492, N-({7-[(3-fluorophenyl)sulfonyl]-1-methyl-1,2,3,4-tetrahydro[1]benzofuro[2,3-c]pyridin-1-yl}methyl)acetamide], for which the melting point is 140 to 155 °C (dec.). Moreover, the Ki in data set [1] (Table 1, class symbols) was below 500 nM.

`CC12CCNCC1Oc1ccc(S(=O)(=O)c3cccc(Cl)c3)cc12` (centres unmarked) [Example 100] yielded a melting point of 160 to 162 °C. For the same molecule, in data set [1] (Table 1, class symbols), the Ki is below 500 nM.

The molecule `CC12CCNCC1Oc1ccc(S(=O)(=O)c3ccccc3F)cc12` (centres unmarked) [Example 99, 6-[(2-fluorophenyl)sulfonyl]-4a-methyl-1,2,3,4,4a,9a-hexahydro[1]benzofuro[2,3-c]pyridine] had a melting point of 260 to 262 °C. Moreover, the inhibition constant Ki in data set [1] (Table 1, class symbols) is below 500 nM. The Ki in data set [1] (specific data) came out at 243 nM.

`CCNC(=O)Oc1cccc(S(=O)(=O)c2ccc3c(c2)OC2CNCCC32)c1` (centres unmarked) [Example 628, 3-[1,2,3,4,4a,9a-Hexahydro[1]benzofuro[2,3-c]pyridin-7-ylsulfonyl]phenyl ethylcarbamate]: the melting point is 217 to 219 °C. In data set [1] (Table 1, class symbols), the Ki is below 500 nM.

In turn, `O=S(=O)(c1cc(F)cc(F)c1)c1ccc2c3c(oc2c1)C1(CCCOC1)NCC3` (racemic) [Example 24, 7-[(3,5-difluorophenyl)sulfonyl]-3,4,5′,6′-tetrahydro-2H,4′H-spiro[1-benzofuro[2,3-c]pyridine-1,3′-pyran]] had a melting point of 85 to 95 °C. In addition, the Ki in data set [1] (Table 1, class symbols) is below 500 nM.

With `CC(C)Oc1cccc(S(=O)(=O)c2ccc3c4c(oc3c2)CNCC4(C)C)c1` [Example 87], the melting point is 251 to 252 °C. Further, the Ki in data set [1] (Table 1, class symbols) was below 500 nM.

Molecule `COc1ccc(S(=O)(=O)c2ccc3c(c2)C2(C)CCNCC2O3)cc1F` (centres unmarked) [Example 95] showed a melting point of 185 to 187 °C. Moreover, the Ki in data set [1] (Table 1, class symbols) was below 500 nM.

For the molecule `CC12CCNCC1Oc1ccc(S(=O)(=O)c3ccccn3)cc12` (centres unmarked) [Example 91], the melting point lay in the range of 255 to 257 °C. Besides, in data set [1] (Table 1, class symbols), the Ki is above 1000 nM.

`CC(=O)Nc1cccc(S(=O)(=O)c2ccc3c(c2)OC2CNCCC32)c1` (centres unmarked) [Example 73] yielded a melting point of 228 to 229 °C. In addition, in data set [1] (Table 1, class symbols), the Ki is below 500 nM.

The molecule `O=S(=O)(c1cccc(-n2cnnn2)c1)c1ccc2c(c1)OC1CNCCC21` (centres unmarked) [Example 75] displayed a melting point above 300 °C. The Ki in data set [1] (Table 1, class symbols) is above 1000 nM.

In the case of `CC12CCNCC1Oc1ccc(S(=O)(=O)c3ccccc3CO)cc12` (centres unmarked) [Example 97], the melting point lay in the range of 204 to 206 °C. The Ki in data set [1] (Table 1, class symbols) is above 1000 nM.

`O=S(=O)(c1ccc2c(c1)OC1CNCCC21)c1c(Cl)cccc1Cl` (centres unmarked) [Example 64]: the melting point fell in the range of 222 to 223 °C. Besides, the Ki in data set [1] (Table 1, class symbols) was below 500 nM.

For the molecule `O=S(=O)(c1cccc(OCc2ccccc2)c1)c1ccc2c(c1)OC1CNCCC21` (centres unmarked) [Example 74], the melting point was in the range of 238 to 240 °C. Further, the Ki in data set [1] (Table 1, class symbols) was below 500 nM.

As to `CC1(CN)NCCc2c1oc1cc(S(=O)(=O)c3cccc(F)c3)ccc21` (centres unmarked) [Example 493, 1-{7-[(3-Fluorophenyl)sulfonyl]-1-methyl-1,2,3,4-tetrahydro[1]benzofuro[2,3-c]pyridin-1-yl}methanamine], the melting point was > 250 °C (dec.). Further, the Ki in data set [1] (Table 1, class symbols) was below 500 nM.

Take `COc1ccc(Cl)cc1S(=O)(=O)c1ccc2c3c(oc2c1)CNCC3` [Example 80]: the melting point lay in the range of 258 to 259 °C. For the same molecule, in data set [1] (Table 1, class symbols), the Ki is below 500 nM.

For `CC(C)Oc1cccc(S(=O)(=O)c2ccc3c(c2)C2(C)CCNCC2O3)c1` (centres unmarked) [Example 98], the melting point was in the range of 162 to 164 °C. Further, the Ki in data set [1] (Table 1, class symbols) is below 500 nM.

Molecule `CC12CCNCC1Oc1ccc(S(=O)(=O)c3ccc(F)cc3)cc12` (centres unmarked) [Example 92] showed a melting point of 163 to 165 °C. The Ki in data set [1] (Table 1, class symbols) is above 1000 nM.

In turn, `CC12CCNCC1Oc1ccc(S(=O)(=O)c3cccc(Cl)c3Cl)cc12` (centres unmarked) [Example 106] yielded a melting point of 244 to 246 °C. Also, the Ki in data set [1] (Table 1, class symbols) was below 500 nM.

With `COc1cc(OCc2ccccc2)cc(S(=O)(=O)c2ccc3c(c2)OC2CNCCC32)c1` (centres unmarked) [Example 76], the melting point lay within 202 to 203 °C. Besides, the Ki in data set [1] (Table 1, class symbols) is below 500 nM.

In the case of `CC12CCNCC1Oc1ccc(S(=O)(=O)c3cccc(Cl)c3Cl)cc12` (centres unmarked) [Example 105], the melting point was 242 to 244 °C. For the same molecule, the Ki in data set [1] (Table 1, class symbols) is below 500 nM.

In the case of `CC12CCNCC1Oc1ccc(S(=O)(=O)c3cccc(F)c3)cc12` (centres unmarked) [Example 90], the melting point was in the range of 168 to 171 °C. Also, the Ki in data set [1] (Table 1, class symbols) is below 500 nM.

`CC12CCNCC1Oc1ccc(S(=O)(=O)c3cccc(Cl)c3)cc12` (centres unmarked) [Example 104] gave a melting point of 216 to 218 °C. Further, in data set [1] (Table 1, class symbols), the Ki was above 1000 nM.

Take `O=S(=O)(c1cccc(F)c1)c1ccc2c3c(oc2c1)C1(CCOCC1F)NCC3` (single isomer, unassigned) [Example 55, 3′-Fluoro-7-[(3-fluorophenyl)sulfonyl]-2′,3,3′,4,5′,6′-hexahydro-2H-spiro[1-benzofuro[2,3-c]pyridine-1,4′-pyran]]: the melting point lay within 251 to 260 °C. In data set [1] (Table 1, class symbols), the Ki was below 500 nM.

`O=S(=O)(c1cccc(O)c1)c1ccc2c3c(oc2c1)CNCC3` [Example 627, 3-(1,2,3,4-Tetrahydro-benzo[4,5]furo[2,3-c]pyridine-7-sulfonyl)-phenol] gave a melting point of 279 to 281 °C. Also, the Ki in data set [1] (Table 1, class symbols) is below 500 nM.

`O=S(=O)(c1ccc2c(c1)OC1CNCCC21)c1cccc2nonc12` (centres unmarked) [Example 72] showed a melting point of 189 to 190 °C. The Ki in data set [1] (Table 1, class symbols) is above 1000 nM.

In turn, `Cc1cncc(Oc2cccc(S(=O)(=O)c3ccc4c(c3)OC3CNCCC43)c2)n1` (centres unmarked) [Example 63] returned a melting point of 128 to 130 °C. Moreover, the Ki in data set [1] (Table 1, class symbols) was below 500 nM.

On to `CC1(C(F)F)NCCc2c1oc1cc(S(=O)(=O)c3cccc(F)c3F)ccc21` (single isomer, unassigned; enantiomer 2) [Example 472, 1-(Difluoromethyl)-7-[(2,3-difluorophenyl)sulfonyl]-1-methyl-1,2,3,4-tetrahydro[1]benzofuro[2,3-c]pyridine, enantiomer 2], for which the melting point is 249 to 252 °C. In addition, the Ki in data set [1] (Table 1, class symbols) is below 500 nM.

With `Cn1ccc2cccc(S(=O)(=O)c3ccc4c5c(oc4c3)CNCC5)c21` [Example 84], the melting point fell in the range of 224 to 225 °C. Besides, in data set [1] (Table 1, class symbols), the Ki is below 500 nM.

In turn, `Cc1c(Cl)cccc1S(=O)(=O)c1ccc2c(c1)OC1CNCCC21` (centres unmarked) [Example 66] showed a melting point of 188 to 189 °C. In data set [1] (Table 1, class symbols), the Ki is below 500 nM.

Regarding `O=S(=O)(c1ccc2c(c1)OC1CNCCC21)c1nc2ccccc2[nH]1` (centres unmarked) [Example 69], the melting point fell in the range of 188 to 189 °C. Moreover, the Ki in data set [1] (Table 1, class symbols) was below 500 nM.

Molecule `CC1(C)CNCc2oc3cc(S(=O)(=O)c4cccc(F)c4)ccc3c21` [Example 86] displayed a melting point of 291 to 293 °C. The Ki in data set [1] (Table 1, class symbols) is below 500 nM.

`COc1cc2c(cc1S(=O)(=O)c1cccc(F)c1)C1CCNCC1O2` (centres unmarked) [Example 89]: the melting point was 197 to 204 °C. In data set [1] (Table 1, class symbols), the Ki is below 500 nM.

`CC12CCNCC1Oc1ccc(S(=O)(=O)c3cccc(Cl)c3)cc12` (centres unmarked) [Example 103] registered a melting point of 218 to 220 °C. Moreover, in data set [1] (Table 1, class symbols), the Ki is below 500 nM.

`COc1cc2c(cc1S(=O)(=O)c1cccc(Cl)c1Cl)C1CCNCC1O2` (centres unmarked) [Example 88]: the melting point is 216 to 217 °C. Further, the Ki in data set [1] (Table 1, class symbols) is below 500 nM.

As to `COc1ccc2sc(S(=O)(=O)c3ccc4c(c3)OC3CNCCC43)nc2c1` (centres unmarked) [Example 71], the melting point is 222 to 223 °C. In addition, the Ki in data set [1] (Table 1, class symbols) is above 1000 nM.

`N#Cc1ccc(COc2cccc(S(=O)(=O)c3ccc4c(c3)OC3CNCCC43)c2)cc1` (centres unmarked) (as salt: HCl) [Example 551] showed a melting point of 203 to 204 °C.

Source of the values: patent publication US8765779B2, “Tricyclic derivatives and their pharmaceutical use and compositions” (Cephalon, Inc., priority 2009, dated 2014).
